According to patent US11180504B2 (ORCHID PHARMA LTD., priority 2016, dated 2021):
≈ marks a conversion by molar mass, not a printed value. Read-outs that look alike come from different tables or passages of the source.

Assays:
[1] = system: carbapenemase producing K. pneumoniae; experiment: MIC by broth micro-dilution (CLSI), carbapenemase producing K. pneumoniae; format: cell-based, Klebsiella pneumoniae
[2] = system: extended spectrum β lactamase (ESBL) SHV18 producing Klebsiella pneumoniae; experiment: MIC by broth micro-dilution (CLSI), ESBL SHV18 producing K. pneumoniae; format: cell-based; conditions: ESBL +ve (SHV-18) K. pneumoniae ATCC700603
[3] = system: carbapenem sensitive Pseudomonas aeruginosa; experiment: MIC by broth micro-dilution (CLSI), carbapenem sensitive P. aeruginosa; format: cell-based
[4] = system: methicillin-sensitive Staphylococcus aureus; experiment: MIC by broth micro-dilution (CLSI), methicillin-sensitive S. aureus; format: cell-based; conditions: MSSA S. aureus ATCC29213
[5] = system: carbapenem sensitive Escherichia coli; experiment: MIC by broth micro-dilution (CLSI), carbapenem sensitive E. coli; format: cell-based
[6] = Klebsiella pneumoniae, ATCCBAA1705, KPC-2 K. pneumoniae ATCC BAA-1705, read-out: MIC
[7] = Klebsiella pneumoniae, ATCC700603, 22 h, read-out: MIC
[8] = Pseudomonas aeruginosa, ATCC27853, Meropenem susceptible P. aeruginosa ATCC27853, read-out: MIC
[9] = Staphylococcus aureus, ATCC 29213 / MSSA, read-out: MIC
[10] = Escherichia coli, ATCC25922, ESBL −ve E. coli ATCC25922, read-out: MIC

Compound	MIC [1, 6]	MIC [2, 7]	MIC [3, 8]	MIC [4, 9]	MIC [5, 10]	MIC ([1]; KPC-2 K. pneumoniae ATCC BAA-1705)	MIC [2]	MIC ([3]; Meropenem susceptible P. aeruginosa ATCC27853)	MIC [4]	MIC ([5]; ESBL −ve E. coli ATCC25922)
C[C@@H](NC(=O)C(F)F)[C@H]1C(=O)N2C(C(=O)O)=C(S[C@@H]3CN[C@H](C(=O)N4CC[C@H](NC(=O)CN)C4)C3)[C@H](C)[C@H]12 [Example 121]	4 µg/mL (≈ 7.16 µM)	4 µg/mL (≈ 7.16 µM)	8 µg/mL (≈ 14.3 µM)	1 µg/mL (≈ 1.79 µM)	0.5 µg/mL (≈ 0.895 µM)	–	–	–	–	–
C[C@@H](NC(=O)C(F)F)[C@H]1C(=O)N2C(C(=O)O)=C(S[C@@H]3CNC(C[N+]4(C)CCCC4)C3)[C@H](C)[C@H]12 (stereo partly drawn) [Example 80]	64 µg/mL	32 µg/mL	> 128 µg/mL	4 µg/mL	4 µg/mL	–	–	–	–	–
C[C@@H](NC(=O)[C@@H]1CCCN1)[C@H]1C(=O)N2C(C(=O)O)=C(S[C@@H]3CN[C@H](CNS(N)(=O)=O)C3)[C@H](C)[C@H]12 [Example 225]	2 µg/mL (≈ 3.87 µM)	32 µg/mL (≈ 61.9 µM)	64 µg/mL (≈ 124 µM)	16 µg/mL (≈ 31 µM)	1 µg/mL (≈ 1.94 µM)	–	–	–	–	–
C[C@@H](NC(=O)C(F)F)[C@H]1C(=O)N2C(C(=O)O)=C(S[C@@H]3CN[C@H](C(=O)N4CC[C@H](NCC(N)=O)C4)C3)[C@H](C)[C@H]12 [Example 153]	8 µg/mL (≈ 14.3 µM)	2 µg/mL (≈ 3.58 µM)	64 µg/mL (≈ 115 µM)	8 µg/mL (≈ 14.3 µM)	1 µg/mL (≈ 1.79 µM)	–	–	–	–	–
CCOC(=O)N[C@H](C)[C@H]1C(=O)N2C(C(=O)O)=C(S[C@@H]3CN[C@H](C(=O)N(C)C)C3)[C@H](C)[C@H]12 [Example 15]	16 µg/mL (≈ 35.2 µM)	16 µg/mL (≈ 35.2 µM)	128 µg/mL (≈ 282 µM)	2 µg/mL (≈ 4.4 µM)	1 µg/mL (≈ 2.2 µM)	–	–	–	–	–
C[C@@H](NC(=O)C(F)F)[C@H]1C(=O)N2C(C(=O)O)=C(SC3CN[C@H](C(=O)N4CCO[C@@H](CN)C4)C3)[C@H](C)[C@H]12 (stereo partly drawn) [Example 127]	16 µg/mL (≈ 30.1 µM)	8 µg/mL (≈ 15 µM)	32 µg/mL (≈ 60.2 µM)	2 µg/mL (≈ 3.76 µM)	2 µg/mL (≈ 3.76 µM)	–	–	–	–	–
C[C@@H](NC(=O)C(F)F)[C@H]1C(=O)N2C(C(=O)O)=C(S[C@@H]3CN[C@H](C(=O)N(C)C)C3)[C@H](C)[C@H]12 [Example 32]	1 µg/mL (≈ 2.17 µM)	1 µg/mL (≈ 2.17 µM)	32 µg/mL (≈ 69.5 µM)	1 µg/mL (≈ 2.17 µM)	0.5 µg/mL (≈ 1.09 µM)	–	–	–	–	–
C[C@@H](NC(=O)C(F)F)[C@H]1C(=O)N2C(C(=O)O)=C(S[C@@H]3CN[C@H](C(=O)N4CC[N+](C)(C)CC4)C3)[C@H](C)[C@H]12 [Example 45]	16 µg/mL	4 µg/mL	4 µg/mL	1 µg/mL	1 µg/mL	–	–	–	–	–
C[C@@H](NC(=O)C(F)F)[C@H]1C(=O)N2C(C(=O)O)=C(S[C@@H]3CN[C@H](C(=O)N4CC[C@@H](F)C4)C3)[C@H](C)[C@H]12 [Example 210]	–	–	–	–	–	4 µg/mL (≈ 7.93 µM)	4 µg/mL (≈ 7.93 µM)	64 µg/mL (≈ 127 µM)	2 µg/mL (≈ 3.96 µM)	1 µg/mL (≈ 1.98 µM)
COCc1cn([C@H](C)[C@H]2C(=O)N3C(C(=O)O)=C(S[C@@H]4CN[C@H](CNS(N)(=O)=O)C4)[C@H](C)[C@H]23)nn1 [Example 234]	4 µg/mL (≈ 7.76 µM)	4 µg/mL (≈ 7.76 µM)	> 128 µg/mL	0.5 µg/mL (≈ 0.97 µM)	0.5 µg/mL (≈ 0.97 µM)	–	–	–	–	–
C[C@@H](NS(=O)(=O)C(F)(F)F)[C@H]1C(=O)N2C(C(=O)O)=C(S[C@@H]3CN[C@H](C(=O)N(C)C)C3)[C@H](C)[C@H]12 [Example 13]	4 µg/mL (≈ 7.77 µM)	8 µg/mL (≈ 15.5 µM)	64 µg/mL (≈ 124 µM)	4 µg/mL (≈ 7.77 µM)	1 µg/mL (≈ 1.94 µM)	–	–	–	–	–
C[C@@H](NC(=O)CC#N)[C@H]1C(=O)N2C(C(=O)O)=C(S[C@@H]3CN[C@H](C(=O)N(C)C)C3)[C@H](C)[C@H]12 [Example 128]	8 µg/mL (≈ 17.8 µM)	8 µg/mL (≈ 17.8 µM)	64 µg/mL (≈ 142 µM)	16 µg/mL (≈ 35.6 µM)	4 µg/mL (≈ 8.9 µM)	–	–	–	–	–
C[C@@H](NS(=O)(=O)CC(F)(F)F)[C@H]1C(=O)N2C(C(=O)O)=C(S[C@@H]3CN[C@H](C(=O)N(C)C)C3)[C@H](C)[C@H]12 [Example 86]	8 µg/mL (≈ 15.1 µM)	8 µg/mL (≈ 15.1 µM)	128 µg/mL (≈ 242 µM)	2 µg/mL (≈ 3.78 µM)	1 µg/mL (≈ 1.89 µM)	–	–	–	–	–
C[C@@H](NC(=O)C(F)F)[C@H]1C(=O)N2C(C(=O)O)=C(SCc3ccncc3)[C@H](C)[C@H]12 [Example 97]	64 µg/mL (≈ 156 µM)	128 µg/mL (≈ 311 µM)	> 128 µg/mL	1 µg/mL (≈ 2.43 µM)	8 µg/mL (≈ 19.4 µM)	–	–	–	–	–
CNCC(=O)N[C@@H](C)[C@H]1C(=O)N2C(C(=O)O)=C(S[C@H]3CN[C@H](C(=O)N4CC[C@@H](N)C4)C3)[C@H](C)[C@H]12 [Example 95, (4R,5S,6R)-3-((3R,5S)-5-((R)-3-aminopyrrolidine-1-carbonyl)pyrrolidin-3-ylthio)-4-methyl-6-((S)-1-(2-(methylamino)acetamido)ethyl)-7-oxo-1-azabicyclo[3.2.0]hept-2-ene-2-carboxylic acid]	2 µg/mL (≈ 4.04 µM)	2 µg/mL (≈ 4.04 µM)	2 µg/mL (≈ 4.04 µM)	32 µg/mL (≈ 64.7 µM)	1 µg/mL (≈ 2.02 µM)	–	–	–	–	–
C[C@@H](NC(=O)C(F)F)[C@H]1C(=O)N2C(C(=O)O)=C(S[C@@H]3CN[C@H](C(=O)N(C)CCC(=O)N4CCCNCC4)C3)[C@H](C)[C@H]12 [Example 174]	8 µg/mL (≈ 13.3 µM)	16 µg/mL (≈ 26.6 µM)	32 µg/mL (≈ 53.3 µM)	4 µg/mL (≈ 6.66 µM)	2 µg/mL (≈ 3.33 µM)	–	–	–	–	–
CCOC(=S)N[C@H](C)[C@H]1C(=O)N2C(C(=O)O)=C(S[C@@H]3CN[C@H](C(=O)N(C)C)C3)[C@H](C)[C@H]12 [Example 20]	16 µg/mL (≈ 34 µM)	8 µg/mL (≈ 17 µM)	128 µg/mL (≈ 272 µM)	2 µg/mL (≈ 4.25 µM)	1 µg/mL (≈ 2.12 µM)	–	–	–	–	–
CC(C)CC(F)(F)C(=O)N[C@H](C)[C@H]1C(=O)N2C(C(=O)O)=C(S[C@@H]3CN[C@H](C(=O)N(C)C)C3)[C@H](C)[C@H]12 [Example 83]	> 128 µg/mL	> 128 µg/mL	> 128 µg/mL	2 µg/mL (≈ 3.87 µM)	64 µg/mL (≈ 124 µM)	–	–	–	–	–
C[C@@H](NC(=O)CN(C)C)[C@H]1C(=O)N2C(C(=O)O)=C(S[C@@H]3CN[C@H](C(=O)N(C)C)C3)[C@H](C)[C@H]12 [Example 100]	4 µg/mL (≈ 8.55 µM)	8 µg/mL (≈ 17.1 µM)	32 µg/mL (≈ 68.4 µM)	16 µg/mL (≈ 34.2 µM)	1 µg/mL (≈ 2.14 µM)	–	–	–	–	–
C[C@@H](NC(=O)C(F)F)[C@H]1C(=O)N2C(C(=O)O)=C(S[C@@H]3CN[C@H](C(=O)N4CCNC[C@@H]4C)C3)[C@H](C)[C@H]12 [Example 161]	4 µg/mL (≈ 7.76 µM)	8 µg/mL (≈ 15.5 µM)	8 µg/mL (≈ 15.5 µM)	0.5 µg/mL (≈ 0.97 µM)	0.5 µg/mL (≈ 0.97 µM)	–	–	–	–	–
C[C@@H](NC(=O)OCC(F)(F)F)[C@H]1C(=O)N2C(C(=O)O)=C(S[C@@H]3CN[C@H](CNS(N)(=O)=O)C3)[C@H](C)[C@H]12 [Example 52]	> 128 µg/mL	128 µg/mL (≈ 235 µM)	> 128 µg/mL	1 µg/mL (≈ 1.83 µM)	8 µg/mL (≈ 14.7 µM)	–	–	–	–	–
CNCC(=O)N[C@H](C)[C@H]1C(=O)N2C(C(=O)O)=C(S[C@@H]3CN[C@H](Cn4cc(CN)nn4)C3)[C@H](C)[C@H]12 [Example 181]	64 µg/mL (≈ 130 µM)	> 128 µg/mL	128 µg/mL (≈ 260 µM)	> 128 µg/mL	8 µg/mL (≈ 16.2 µM)	–	–	–	–	–
CNCC(=O)N[C@H](C)[C@H]1C(=O)N2C(C(=O)O)=C(S[C@@H]3CN[C@H](C(=O)N4C[C@H](N)[C@@H](N)C4)C3)[C@H](C)[C@H]12 [Example 200]	4 µg/mL (≈ 7.85 µM)	8 µg/mL (≈ 15.7 µM)	4 µg/mL (≈ 7.85 µM)	128 µg/mL (≈ 251 µM)	2 µg/mL (≈ 3.92 µM)	–	–	–	–	–
C[C@@H](NC(=O)C(F)F)[C@H]1C(=O)N2C(C(=O)O)=C(S[C@@H]3CN[C@H](C(=O)N(C)[C@H]4CCNC4)C3)[C@H](C)[C@H]12 [Example 134]	4 µg/mL (≈ 7.76 µM)	4 µg/mL (≈ 7.76 µM)	16 µg/mL (≈ 31 µM)	2 µg/mL (≈ 3.88 µM)	1 µg/mL (≈ 1.94 µM)	–	–	–	–	–
C[C@@H](NC(=O)C(F)F)[C@H]1C(=O)N2C(C(=O)O)=C(S[C@@H]3CN[C@H](C(=O)N(C)CCC(=O)N4CC[C@H](N)C4)C3)[C@H](C)[C@H]12 [Example 173]	8 µg/mL (≈ 13.6 µM)	16 µg/mL (≈ 27.3 µM)	16 µg/mL (≈ 27.3 µM)	4 µg/mL (≈ 6.82 µM)	2 µg/mL (≈ 3.41 µM)	–	–	–	–	–
C[C@@H](NC(=O)C(F)F)[C@H]1C(=O)N2C(C(=O)O)=C(S[C@H]3C[C@@H](C(=O)N(C)C)N(C=N)C3)[C@H](C)[C@H]12 [Example 108]	16 µg/mL (≈ 32.8 µM)	4 µg/mL (≈ 8.2 µM)	128 µg/mL (≈ 263 µM)	2 µg/mL (≈ 4.1 µM)	1 µg/mL (≈ 2.05 µM)	–	–	–	–	–
CCS(=O)(=O)N[C@H](C)[C@H]1C(=O)N2C(C(=O)O)=C(S[C@@H]3CN[C@H](C(=O)N(C)C)C3)[C@H](C)[C@H]12 [Example 10]	4 µg/mL (≈ 8.43 µM)	2 µg/mL (≈ 4.21 µM)	> 128 µg/mL	16 µg/mL (≈ 33.7 µM)	1 µg/mL (≈ 2.11 µM)	–	–	–	–	–
C[C@@H](NS(=O)(=O)C(F)(F)F)[C@H]1C(=O)N2C(C(=O)O)=C(S[C@@H]3CN[C@H](CNS(N)(=O)=O)C3)[C@H](C)[C@H]12 [Example 19]	> 128 µg/mL	8 µg/mL (≈ 14.5 µM)	128 µg/mL (≈ 232 µM)	1 µg/mL (≈ 1.81 µM)	1 µg/mL (≈ 1.81 µM)	–	–	–	–	–
C[C@@H](NC=N)[C@H]1C(=O)N2C(C(=O)O)=C(S[C@@H]3CN[C@H](C(=O)N(C)C)C3)[C@H](C)[C@H]12 [Example 48]	64 µg/mL (≈ 156 µM)	1 µg/mL (≈ 2.44 µM)	8 µg/mL (≈ 19.5 µM)	16 µg/mL (≈ 39.1 µM)	0.5 µg/mL (≈ 1.22 µM)	–	–	–	–	–
CNCC(=O)N[C@H](C)[C@H]1C(=O)N2C(C(=O)O)=C(S[C@@H]3CN[C@H](C(=O)N4CC[C@H](F)C4)C3)[C@H](C)[C@H]12 [Example 214]	16 µg/mL (≈ 32.2 µM)	32 µg/mL (≈ 64.3 µM)	> 128 µg/mL	32 µg/mL (≈ 64.3 µM)	4 µg/mL (≈ 8.04 µM)	–	–	–	–	–
